Assay results from patent publication US11059815B2, “Synthesis of small molecule histone deacetylase 6 degraders, compounds formed thereby, and pharmaceutical compositions containing them” (Wisconsin Alumni Research Foundation, priority 2018, dated 2021).

Legend:
IKZF1/3 = assay: Western blot of IKZFs in MM1S cells; format: cell-based, human
Method: FIGS. 10A and 10B are western blot analysis of MM1S cells treated with selected candidates from C4-lined series (FIG. 10A) and C5-lined series (FIG. 10B) for 6 h.
(§1) FIGS. 12A, 12B, and 12C are a series of western blots showing that degrader 12d selectively promotes HDAC6 degradation in MM1S cells.
As discussed before, pomalidomide and its analogues are known to activate CRBN's E3 ligase activity for the degradation of IKZFs. […] IKZFs regulate the expression of interferon regulatory factor 4 (IRF4) and c-Myc to affect the proliferation of multiple myeloma (MM). […] PROTACs with IKZF degradation activity have been reported in a number of cases and the IKZFs are often considered as “off-targets” during the development of these PROTACs. The results presented here indicate that the IKZF degradation activity can be impacted by the linker position and the functional group next to the phthalimide ring. In the studies, the triazole ring linked to C4 position likely contributed to the induced interaction between CRBN and IKZFs.
To evaluate the activity and selectivity of 12d, a full dose response experiment was performed with compound concentrations ranging from 0.3 nM to 10 μM in MM1S cells (FIG. 12A) for several HDACs, IKZFs, and Ac-tubulin. […] Degrader 12d reduced HDAC6 protein content at as low as 3 nM and achieved maximal effects around 30 nM. […] See Douglass et al. 2013, supra. The degradation of IKZFs started from 30 nM and was dose-dependent. It is interesting to see the more efficient degradation of HDAC6, which requires the formation of ternary complex, than that of IKZFs, which only requires the formation of binary complex. In addition to the distinct mechanism, the different turnover rates of HDAC6 and IKZFs may also contribute to the observed results. The acetylated tubulin level was also dose-dependent. At higher concentrations (3 μM and 10 μM), tubulin acetylation was not […] in response to recovered HDAC6 expression by “hook effect”. The elevated tubulin acetylation at higher concentrations was likely due to the combination of HDAC6 degradation and HDAC6 inhibition.
To probe the efficiency of 12d, MM1S was treated with 100 nM 12d and the change of HDAC6 protein level was monitored by time. The HDAC6 degradation started around 1 h and reached maximal degradation effect at 4 h. The degradation of IKZFs was only observed after 4 h. Meanwhile, HDAC1 was not affected and the acetylation of tubulin was accumulated by time. […] HDAC6 expression was monitored for 48 h. […]
When the cells reached 90% confluence, they were harvested and plated 1×10^6 cells per well in 6-well plate. […] Protein concentration was measured by using the Pierce BCA protein assay (Thermo Fisher Scientific). […]

acetylated tubulin = assay: Western blot of acetylated tubulin in MM1S cells; format: cell-based, human; conditions: 100 nM
Source text: as §1
To further examine the selectivity of the new generation of HDAC6 degraders, compound 12d was compared to SAHA, Next-A, degrader 1 and pan-inhibitor 2 for change of acetylated a-tubulin and acetylated histone H3.
When the cells reached 90% confluence, they were harvested and plated 1×10^6 cells per well in 6-well plate. After overnight seeding, the cells were treated with a solution of compounds or vehicle in culture medium. The culture medium was removed after treatment and then washed twice with cold PBS. To obtain whole cell lysate, all cells were treated with RIPA lysis buffer (25 mM Tris, pH 7-8, 150 mM NaCl, 0.1% SDS, 0.5% sodium deoxycholate, 1% Triton X-100, protease inhibitor cocktail (Roche, 1 tablet per 10 mL) and 1 mM PMSF) on ice for 10 minutes. Supernatant was collected after spinning down at 16,000 g at 4° C. for 15 minutes. Protein concentration was measured by using the Pierce BCA protein assay (Thermo Fisher Scientific). About 10-40 μg of total protein was mixed with 4× Laemmli Loading Dye (250 mM Tris, pH 6.8, 40% glycerol, 5% SDS, 0.005% bromophenol blue, 4% BME) and heated at 95-100° C. for 5 minutes. The heated sample was then subjected to 7.5-12% SDS-PAGE and transferred to PVDF membrane (Bio-Rad,). The membrane was blocked in 5% non-fat milk (Bio-rad) in TBS-T washing buffer (137 mM NaCl, 20 mM Tris, 0.1% Tween) and then incubated with primary antibodies at 4° C. overnight. […] The Immunoblot was generated by ChemiDoc MP Imaging Systems (Bio-Rad) and analyzed by Image J software (only available for download online at https://imagej.net/Downloads). […]
The activity of all eleven “n+4” VHL-based potential degraders to suppress HDAC6 expression was tested at 100 nM and compared to CRBN degrader 2 in MM1S cells. The resulting cells were analyzed for HDAC6 expression by in-cell ELISA (FIG. 15). […]

HDAC1 = biological target: T1, HDAC1 (Homo sapiens, UniProt Q13547); assay: Western blot of HDAC1 in MM1S cells (time course); format: cell-based; conditions: 100 nM
T1 construct: endogenous in cells; host or cells: MM1S
T1 sequence (Q13547 whole entry): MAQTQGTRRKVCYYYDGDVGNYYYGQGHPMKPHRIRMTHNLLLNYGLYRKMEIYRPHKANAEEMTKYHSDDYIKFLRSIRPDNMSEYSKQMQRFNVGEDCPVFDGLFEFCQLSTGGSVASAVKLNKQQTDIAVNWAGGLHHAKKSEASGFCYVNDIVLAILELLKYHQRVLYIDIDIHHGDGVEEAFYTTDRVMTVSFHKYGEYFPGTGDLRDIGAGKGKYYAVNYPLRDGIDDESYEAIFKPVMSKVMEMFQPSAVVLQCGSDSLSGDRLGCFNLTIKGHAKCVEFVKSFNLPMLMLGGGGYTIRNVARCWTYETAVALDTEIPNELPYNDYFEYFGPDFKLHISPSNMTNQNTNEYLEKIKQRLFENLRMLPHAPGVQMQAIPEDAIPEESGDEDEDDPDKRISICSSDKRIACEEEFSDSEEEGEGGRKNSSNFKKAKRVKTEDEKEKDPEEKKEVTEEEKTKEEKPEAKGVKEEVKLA
Method: as §1
To probe the efficiency of 12d, MM1S was treated with 100 nM 12d and the change of HDAC6 protein level was monitored by time. The HDAC6 degradation started around 1 h and reached maximal degradation effect at 4 h. The degradation of IKZFs was only observed after 4 h. Meanwhile, HDAC1 was not affected and the acetylation of tubulin was accumulated by time. To study the re-synthesis rate of HDAC6 after degradation, “wash-out” experiments were performed (data not shown). Cells were treated with 100 nM 12d for 6 h and then washed with PBS to remove remaining degraders. HDAC6 expression was monitored for 48 h. […] Selected degraders were also tested in other cell lines and they are effective among all tested cancer cell lines.
When the cells reached 90% confluence, they were harvested and plated 1×10^6 cells per well in 6-well plate. After overnight seeding, the cells were treated with a solution of compounds or vehicle in culture medium. […] Protein concentration was measured by using the Pierce BCA protein assay (Thermo Fisher Scientific). […] The Immunoblot was generated by ChemiDoc MP Imaging Systems (Bio-Rad) and analyzed by Image J software (only available for download online at https://imagej.net/Downloads). […]

| SMILES | IKZF3 recovery after wash-out (IKZF1/3; 100 nM for 6 h, washed with PBS, after 12 h) | induced degradation of IKZF1/3 (IKZF1/3; 100 nM, 6 h, MM1S) | time after which degradation of IKZFs was observed (IKZF1/3; 100 nM, MM1S) | concentration from which degradation of IKZFs started (IKZF1/3; 12d dose response 0.3 nM to 10 μM, MM1S) | change of acetylated tubulin (acetylated tubulin) | effect on HDAC1 (HDAC1) |
| --- | --- | --- | --- | --- | --- | --- |
| CCCCN(Cc1ccc(C(=O)NO)cc1)C(=O)Nc1ccc(OCCCCCn2cc(CNc3cccc4c3C(=O)N(C3CCC(=O)NC3=O)C4=O)nn2)cc1 (stereo not shown) [Compound 12d, 4-((1-butyl-3-(4-((5-(4-(((2-(2,6-dioxopiperidin-3-yl)-1,3-dioxoisoindolin-4-yl)amino)methyl)-1H-1,2,3-triazol-1-yl)pentyl)oxy)phenyl)ureido)methyl)-N-hydroxybenzamide] | quickly recovered | retained the induced degradation | > 4 h | ≥ 30 nM | increased | not affected |
| CCCCN(Cc1ccc(C(=O)NO)cc1)C(=O)Nc1ccccc1 [Next-A, 4-[[butyl[(phenylamino)carbonyl]amino]methyl]-N-hydroxy-benzamide, reference compound] | – | – | – | – | didn't | – |
